Laboratory results from article PMC5095920 (Biochemical Journal, 2016).

Biological target: T1, HemQ (Staphylococcus aureus, UniProt Q2YS77)
T1 sequence (Q2YS77 1-250): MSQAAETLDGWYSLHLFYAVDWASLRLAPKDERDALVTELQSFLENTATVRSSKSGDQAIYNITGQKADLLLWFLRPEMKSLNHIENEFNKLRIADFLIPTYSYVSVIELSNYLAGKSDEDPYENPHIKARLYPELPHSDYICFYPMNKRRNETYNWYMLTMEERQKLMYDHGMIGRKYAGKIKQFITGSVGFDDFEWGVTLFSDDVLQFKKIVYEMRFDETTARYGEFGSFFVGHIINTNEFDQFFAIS
Assay: co-purification on affinity column, absorption spectroscopy
Assay type: binding
Conditions: porphyrin added before affinity chromatography, pH 8.0

For `CC1=C(CCC(=O)O)c2cc3nc(cc4[nH]c(cc5[nH]c(cc1n2)c(C)c5CCC(=O)O)c(CCC(=O)O)c4C)C(CCC(=O)O)=C3C` [coproporphyrin III], the “co-purification on affinity column, absorption spectroscopy” value was “HemQ that was loaded with bound haem, protoporphyrin IX, and coproporphyrin III”.
With `C=CC1=C(C)c2cc3[nH]c(cc4nc(cc5[nH]c(cc1n2)c(C)c5CCC(=O)O)C(CCC(=O)O)=C4C)c(C)c3C=C` [protoporphyrin IX] the “co-purification on affinity column, absorption spectroscopy” value was “HemQ that was loaded with bound haem, protoporphyrin IX, and coproporphyrin III”.
